Source: BindingDB's records for doi:10.1021/jm701311r (Georgia Institute of Technology, 2008)

Key:
Test in all cases: AE Enzyme Inhibition Assay
[1] = biological target: T1, Clan CD, family C13, asparaginyl endopeptidase-like cysteine peptidase (Trichomonas vaginalis (strain ATCC PRA-98 / G3), UniProt A2DYT2)
T1 sequence (A2DYT2 whole entry): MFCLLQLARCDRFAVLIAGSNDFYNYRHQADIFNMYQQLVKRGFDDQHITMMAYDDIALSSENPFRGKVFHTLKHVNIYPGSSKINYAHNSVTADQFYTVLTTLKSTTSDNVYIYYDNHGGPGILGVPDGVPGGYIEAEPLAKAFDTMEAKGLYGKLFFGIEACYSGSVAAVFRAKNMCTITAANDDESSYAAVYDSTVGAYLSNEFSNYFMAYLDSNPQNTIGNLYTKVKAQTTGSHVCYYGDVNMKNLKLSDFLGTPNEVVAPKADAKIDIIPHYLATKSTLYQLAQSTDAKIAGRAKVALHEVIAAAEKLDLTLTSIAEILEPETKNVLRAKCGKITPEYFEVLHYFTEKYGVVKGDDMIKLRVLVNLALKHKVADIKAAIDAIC
Description: (§1) AE activity in the induction medium was measured with the substrate Cbz-Ala-Ala-Asn-AMC. In a black 96-well microtiter plate, aza-peptidyl inhibitors were added to the reaction buffer containing the activated enzyme, and allowed to incubate at room temperature for 20 min. Then, substrate Cbz- Ala-Ala-Asn-AMC was added and the reaction allowed proceeding for 20 min. Plotting the relative fluorescence units (RFU)/min against the inhibitor concentration (uM) permitted calculation of the IC50 value.

Legumain [2] = biological target: T2, Legumain (Ixodes ricinus, UniProt Q6PRC7); details: 25 °C
T2 sequence (Q6PRC7 whole entry): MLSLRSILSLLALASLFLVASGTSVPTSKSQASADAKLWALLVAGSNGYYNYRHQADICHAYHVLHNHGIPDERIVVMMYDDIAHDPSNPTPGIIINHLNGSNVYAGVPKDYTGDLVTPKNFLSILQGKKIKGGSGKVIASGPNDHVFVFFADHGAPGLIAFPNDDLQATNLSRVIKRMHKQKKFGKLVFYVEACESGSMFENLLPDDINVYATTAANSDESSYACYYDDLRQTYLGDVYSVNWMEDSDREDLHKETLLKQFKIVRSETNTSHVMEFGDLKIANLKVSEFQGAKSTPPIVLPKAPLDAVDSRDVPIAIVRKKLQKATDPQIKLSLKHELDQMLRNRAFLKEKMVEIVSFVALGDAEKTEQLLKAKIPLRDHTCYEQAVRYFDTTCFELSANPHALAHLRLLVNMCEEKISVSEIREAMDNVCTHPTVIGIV
Description: as §1

Legumain [3] = biological target: T3, Legumain (Schistosoma mansoni, UniProt Q9NFY9)
T3 sequence (Q9NFY9 whole entry): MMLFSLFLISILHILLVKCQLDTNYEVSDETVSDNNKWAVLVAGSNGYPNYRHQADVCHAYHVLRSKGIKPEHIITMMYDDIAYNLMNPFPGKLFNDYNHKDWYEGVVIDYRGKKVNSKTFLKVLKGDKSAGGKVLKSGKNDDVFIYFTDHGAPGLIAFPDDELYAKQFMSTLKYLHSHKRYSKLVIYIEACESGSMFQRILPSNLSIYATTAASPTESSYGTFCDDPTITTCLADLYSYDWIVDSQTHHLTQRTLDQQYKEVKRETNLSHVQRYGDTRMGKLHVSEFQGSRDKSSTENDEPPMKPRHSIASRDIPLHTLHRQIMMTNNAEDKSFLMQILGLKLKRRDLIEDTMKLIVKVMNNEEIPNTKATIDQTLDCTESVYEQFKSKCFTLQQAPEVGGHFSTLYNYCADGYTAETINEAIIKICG
Description: as §1

Row | SMILES | IC50 ([1]; 25 °C) [nM] | IC50 (Legumain [2]) [nM] | IC50 (Legumain [3]; pH 6.8, 22 °C) [nM] | IC50 ([1]; pH 6.8, 22 °C) [nM] | IC50 (Legumain [3]; 25 °C) [nM]
1 | C[C@H](NC(=O)OCc1ccccc1)C(=O)N[C@@H](C)C(=O)NN(CC(N)=O)C(=O)C=CC(=O)N(Cc1ccccc1)c1ccccc1 [benzyl N-[(1S)-1-{[(2S)-1-[(2E)-N-benzyl-3-[N-(carbamoylmethyl)hydrazido]-N-phenylprop-2-enamide]-1-oxopropan-2-yl]carbamoyl}ethyl]carbamate] | < 1 | < 1 | 70 | – | –
2 | C[C@H](NC(=O)OCc1ccccc1)C(=O)N[C@@H](C)C(=O)NN(CC(N)=O)C(=O)C=CC(=O)NCc1ccccc1 [benzyl N-[(1S)-1-{[(2S)-1-[(2E)-N-benzyl-3-[N-(carbamoylmethyl)hydrazido]prop-2-enamide]-1-oxopropan-2-yl]carbamoyl}ethyl]carbamate] | – | 200 | 1000 | 10 | –
3 | CCOC(=O)C=CC(=O)N(CC(N)=O)NC(=O)[C@H](C)NC(=O)[C@H](C)NC(=O)CCCC[C@@H]1SC[C@@H]2NC(=O)N[C@@H]21 [ethyl (2E)-4-[(2S)-2-[(2S)-2-{5-[(3aS,4S,6aR)-2-oxo-hexahydro-1H-thieno[3,4-d]imidazolidin-4-yl]pentanamido}propanamido]-N'-(carbamoylmethyl)propanehydrazido]-4-oxobut-2-enoate] | < 10 | 2.8 | – | – | 10
